The subject of test [1] is MSSA ATCC 29213. The conditions noted are these: absence of 0.002% polysorbate-80; cited from earlier work.
For the next test, the system named is S. aureus ATCC 29213. As to the kind of experiment: Membrane depolarization, DiSC3(5) fluorescence. The test is classed as cell-based. The conditions noted are these: 30 min. Here is the method:
Bacteria were grown overnight in CAMHB and sub-cultured the following day in CAMHB to exponential phase (OD600≈0.25). Exponential- and stationary-phase cells were washed in membrane assay buffer with or without 5 mM glucose, respectively, and resuspended at an OD600=0.25. DiSC3(5) was added to a final concentration of 1.5 μM and the solution was incubated in the dark at ambient temperature for 30 minutes to allow loading of the fluorescent dye into cell membranes. After the loading period, cells were diluted 50-fold (OD600=0.005) in depolarization buffer with or without glucose for exponential- or stationary-phase cells, respectively. Assays were initiated by the addition of antimicrobial agents over a range of concentrations and were monitored in real time by fluorescence spectroscopy (λex=612, λem=665) for a period of 30 minutes. […] Experiments were repeated three times and produced similar results; results from one assay are presented.

The subject of test [2] is VRSA VRS5. As to the kind of experiment: Time-kill in nutrient-depleted CAMHB. Format: cell-based, S. aureus. As to the method: (§1) Nutrient-depleted CAMHB from each respective strain was prepared by 3 rounds of inoculation of CAMHB with exponential-phase bacteria, incubation overnight at 37° C. with rotation (225 rpm) and centrifugation (8000×g for 30 minutes) to remove bacteria. After the final round of inoculation, growth and centrifugation, the pH of the nutrient-depleted CAMHB was adjusted to pH=7.0 and the spent medium was filter-sterilized using a […] membrane (Corning Incorporated, Corning, N.Y.).
(§2) Nutrient-depleted CAMHB containing diluted antimicrobial agents was inoculated with stationary-phase bacteria from overnight cultures of the S. aureus strains at approximately 10^7 colony-forming units (CFU)/mL. Other experiments compared the killing of stationary- and exponential-phase S. aureus ATCC 29213 when inoculated into nutrient-depleted CAMHB containing the test agents. For assays involving daptomycin, nutrient-depleted CAMHB was supplemented with 50 μg/ml CaCl2 (8). All time-kill studies were performed in 96-well deep-well plates at 37° C. with rotation (225 rpm) in a total volume of 750 μL. Bacteria were enumerated by serial-dilution plating. Bacteriostatic and bactericidal activity of the antimicrobial agents were defined as a reduction in viable cell counts of <3 or ≥3 log at 24 hours relative to the starting inoculum, respectively (33). Experiments were repeated at least three times and produced similar results; results from one experiment are presented.

Test [3] has as its system MRSA ATCC 33591. In words: Time-kill in nutrient-depleted CAMHB. Format: cell-based, S. aureus. The conditions noted are these: stationary-phase, free-trough concentration 0.5 μg/mL, 24 hours. As to the method: as §1, §2
Test [4] relates to MSSA ATCC 29213. In words: Time-kill in nutrient-depleted CAMHB. The conditions noted are these: stationary-phase, estimated free-trough concentration 0.5 μg/mL, 24 hours. The test is classed as cell-based, S. aureus. As to the method:
as §1, §2

Test [5] concerns VRSA VRS5. As to the kind of experiment: MBEC system in vitro biofilm (MIC and MBEC). The test is classed as cell-based, S. aureus. Here is the method: (§3) The commercially-available MBEC™ system (Innovotech; Edmonton, AB, Canada) was used following the manufacturer's protocol (17) to establish in vitro biofilms of S. aureus and to determine the minimal biofilm eradication concentration (MBEC) of oritavancin and comparator antimicrobial agents. The MBEC represents the concentration of antimicrobial agent required to sterilize the biofilm after 24 hours of exposure. The MBEC™ system also allows for the determination of the minimal inhibitory concentration (MIC) of the test agent against planktonic cells under the conditions of the biofilm assay.
(§4) 150 μL of bacterial inocula at 10^7 CFU/mL in tryptic soy broth was aliquoted into each well of an MBEC plate. Biofilms were established for 24 hours in a rotary incubator at 37° C. and 150 rpm. For experiments involving 72-hour biofilms, peg lids were transferred each day to 96-well plates containing 150 μL/well of fresh tryptic soy broth and incubated another 24 hours. Peg lids with established biofilms were washed once in sterile saline (200 μL/well) and then placed in plates containing antimicrobial agents diluted in CAMHB (200 μL/well). Antimicrobial agents were serially diluted in CAMHB in 96-well plates and peg lids were exposed for 24 hours or for the indicated times. Following antimicrobial challenge, peg lids were washed once in sterile saline then placed in recovery plates containing CAMHB (200 μL/well). The recovery plates were sonicated for 5 minutes in an ultrasonic sonicating bath (VWR Aquasonic model 550D) at the maximum setting then incubated for 24 hours and the MBECs recorded. MBECs were determined from at least three independent experiments; results represent the ranges of MBECs obtained. To enumerate the biofilm colony forming units (CFUs) on individual control pegs, pegs were broken off the lid using sterile forceps placed in 1 ml sterile saline, sonicated for 5 min and vortexed for 1 min at the highest setting. Bacteria were then enumerated by serial-dilution plating.
(§5) To prevent loss of oritavancin due to binding to vessel surfaces (3), the CLSI now recommends inclusion of 0.002% polysorbate-80 for oritavancin broth microdilution MIC determinations (9).

For test [6], the system named is MRSA ATCC 33591. In words: MBEC system in vitro biofilm (MIC and MBEC). Format: cell-based, S. aureus. As to the method:
as §3, §4, §5

Test [7] relates to MSSA ATCC 29213. As to the kind of experiment: MBEC system in vitro biofilm (MIC and MBEC). The test is classed as cell-based, S. aureus. The conditions noted are these: for MIC: Staphylococcus aureus. Here is the method: as §3, §4, §5
Test [8] deals with S. epidermidis ATCC 12228. In words: MBEC plate biofilm eradication. The conditions noted are these: single agents. The test is classed as cell-based. From the text:
(§6) The following strains were used for in vitro biofilm studies: vancomycin (VAN)-susceptible Enterococcus faecalis ATCC 29212 (VSE), VAN-resistant E. faecalis ATCC 51299 (VanB VRE), E. faecium ATCC 51559 (VanA VRE), S. epidermidis ATCC 12228 and the slime-producing strain S. epidermidis ATCC 35984. Biofilms were established in MBEC™ Physiology & Genetics Assay plates (Innovotech; Edmonton, Canada).

The subject of test [9] is E. faecium ATCC 51559 (VanA VRE). As to the kind of experiment: MBEC plate biofilm eradication. The conditions noted are these: 24 h of drug challenge. Format: cell-based.
Excerpt: as §6

For test [10], the system named is vancomycin (VAN)-susceptible Enterococcus faecalis ATCC 29212 (VSE). As to the kind of experiment: MBEC plate biofilm eradication. The test is classed as cell-based. The conditions noted are these: 24 h of drug challenge.
Excerpt: as §6

The test system of test [11] is VAN-resistant E. faecalis ATCC 51299 (VanB VRE). In words: MBEC plate biofilm eradication. Format: cell-based. The conditions noted are these: 24 h of drug challenge.
Excerpt: as §6

[12] abbreviates: 24-hour biofilm, 24 hours of exposure, oritavancin without polysorbate-80.

Data on one molecule can be found in patent US10201587B2, “Methods of inhibiting and treating biofilms using glycopeptide antibiotics” (MELINTA THERAPEUTICS, INC., priority 2008, dated 2019).

≈ marks a conversion by molar mass, not a printed value. Read-outs that look alike come from different tables or passages of the source.

`CN[C@H](CC(C)C)C(=O)N[C@H]1C(=O)N[C@@H](CC(N)=O)C(=O)N[C@H]2C(=O)N[C@H]3C(=O)N[C@H](C(=O)N[C@H](C(=O)O)c4cc(O)cc(O)c4-c4cc3ccc4O)[C@H](O[C@H]3C[C@](C)(N)[C@@H](O)[C@H](C)O3)c3ccc(c(Cl)c3)Oc3cc2cc(c3O[C@@H]2O[C@H](CO)[C@@H](O)[C@H](O)[C@H]2O[C@H]2C[C@](C)(NCc3ccc(-c4ccc(Cl)cc4)cc3)[C@@H](O)[C@H](C)O2)Oc2ccc(cc2Cl)[C@H]1O` [Oritavancin, N-(4-(4-chlorophenyl)benzyl)A82846B]: the “CLSI quality control range of MIC” value in the test with MSSA ATCC 29213 [1] was 0.5 to 2 µg/mL. The “dissipation of membrane potential (DiSC3(5) fluorescence)” value in the test with S. aureus ATCC 29213 (exponential-phase cells) and in the test with S. aureus ATCC 29213 (stationary-phase cells) was “occurred in a concentration-dependent manner” in each case. In addition, the “activity at the 24-hour time point” value in the test with VRSA VRS5 [2] (stationary-phase inoculum, fCmax 800 (16 μg/mL)) is “bactericidal (Bacteriostatic and bactericidal activity of the antimicrobial agents were defined as a reduction in viable cell counts of <3 or ≥3 log at 24 hours relative to the starting inoculum, respectively)”. Also, the “decrease in viable cell counts” value in the test on VRSA VRS5 [2] (stationary-phase, fCmax, 24 hours) is reported as “approx 2.2 log”. Besides, the “reduction in viable cell counts” value with VRSA VRS5 [2] (stationary-phase, free-trough concentration 0.5 μg/mL, 24 hours) was “approx 1.2 log”; in the test on MRSA ATCC 33591 [3], “approx 0.4 log”; in the test on MSSA ATCC 29213 [4], “approx 2.9 log”. Also, the MBEC with VRSA VRS5 [5] (setting [12]) was 2 to 8 µg/mL; in the test with MRSA ATCC 33591 [6] (setting [12]) it was 0.5 to 4 µg/mL; in the test on MSSA ATCC 29213 [7] (24-hour biofilm, 1 hour exposure), 4 µg/mL; in the test with MSSA ATCC 29213 [7] (setting [12]) it was 2 to 4 µg/mL; with MSSA ATCC 29213 [7] (72-hour biofilms) it was 8 to 32 µg/mL; in [8], 2 to 4 mg/L. Besides, the MBEC in test [9], in [10] and in [11] was 2 to 4 mg/L each time. For the same molecule, the MIC in the test on VRSA VRS5 [5] (Staphylococcus aureus, VRSA, 24 h) was 2 to 8 µg/mL (≈ 1.12 to 4.46 µM); in the test on MRSA ATCC 33591 [6] (Staphylococcus aureus, 24 h), 0.5 to 4 µg/mL (≈ 0.279 to 2.23 µM); with MSSA ATCC 29213 [7] (24 h), 2 µg/mL (≈ 1.12 µM); with MSSA ATCC 29213 [7] (72 h, read-out: planktonic MIC), 4 to 32 µg/mL (≈ 2.23 to 17.8 µM). Moreover, the “MBEC relative to respective planktonic MIC” value in the test with MSSA ATCC 29213 [7] (72-hour biofilms, within each experiment) was “no more than one doubling dilution higher”. In addition, the “planktonic MIC relative to CLSI quality control range” value in the test with MSSA ATCC 29213 [7] (MBEC assay) is reported as “within quality control range”.
